Here are results for ten molecules from US8268807B2, “Compositions and method for the treatment of multiple myeloma” (SRI International, priority 2010, dated 2012).

Where two headings read alike, the source gives them in different places.

The subject of assay [1] is RPMI-8226 multiple myeloma cells. The assay is described as follows: Proliferation of RPMI-8226 multiple myeloma cells. The note with it: read-out: IC50 against RPMI-8226 proliferation. The assay is classed as cell-based, human. Here is the method:
Growth inhibition assay was performed to assess the effect of Compound (1) and antiestrogens on growth of RPMI-8226 (multiple myeloma) cells. Cells were seeded in 96-well plates at 2000 cells/well in 200 μL of medium. After 24 hours, test compounds were added to each well and control wells received vehicle only. On Day 3, viable cells were measured with the MTT assay, using an MTT kit.
The effect of Compound (1) and analogs thereof on proliferation of RPMI-8226 multiple myeloma cells was determined by standard methods.

The nature of assay [2]: Activity test of salts of Compound (1) (test not specified).
The target of the next assay is T1, ER-α (Homo sapiens, UniProt P03372).
T1 sequence (P03372 1-595): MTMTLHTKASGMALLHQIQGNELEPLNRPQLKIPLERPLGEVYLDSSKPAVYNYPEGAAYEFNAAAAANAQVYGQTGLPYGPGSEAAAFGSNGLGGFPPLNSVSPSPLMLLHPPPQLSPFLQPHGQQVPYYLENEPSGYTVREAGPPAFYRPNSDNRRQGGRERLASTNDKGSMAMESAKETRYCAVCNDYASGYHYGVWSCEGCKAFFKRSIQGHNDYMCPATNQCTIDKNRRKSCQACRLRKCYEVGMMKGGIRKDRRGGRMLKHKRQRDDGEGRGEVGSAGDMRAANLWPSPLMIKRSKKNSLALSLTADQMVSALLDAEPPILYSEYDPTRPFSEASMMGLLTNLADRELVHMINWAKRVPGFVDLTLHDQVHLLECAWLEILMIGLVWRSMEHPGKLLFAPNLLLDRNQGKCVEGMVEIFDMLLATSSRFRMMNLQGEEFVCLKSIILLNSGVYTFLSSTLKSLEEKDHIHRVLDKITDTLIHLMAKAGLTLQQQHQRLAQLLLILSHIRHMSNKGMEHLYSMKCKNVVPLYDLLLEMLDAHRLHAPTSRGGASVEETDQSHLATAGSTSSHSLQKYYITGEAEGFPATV
Nature of the assay: Estrogen receptor binding assay (3H-estradiol displacement), ER-α. The note with it: recombinant estrogen receptor, 10 nM 3H-estradiol, 4° C. overnight; read-out: Binding Affinity (IC50) ER-α.

The target in a further assay is ER-β (Homo sapiens, UniProt Q92731). The assay is described as follows: Estrogen receptor binding assay (3H-estradiol displacement), ER-β. The note with it: recombinant estrogen receptor, 10 nM 3H-estradiol, 4° C. overnight; read-out: Binding Affinity (IC50) ER-β.
Sequence of ER-β (Q92731 whole entry, species assumed): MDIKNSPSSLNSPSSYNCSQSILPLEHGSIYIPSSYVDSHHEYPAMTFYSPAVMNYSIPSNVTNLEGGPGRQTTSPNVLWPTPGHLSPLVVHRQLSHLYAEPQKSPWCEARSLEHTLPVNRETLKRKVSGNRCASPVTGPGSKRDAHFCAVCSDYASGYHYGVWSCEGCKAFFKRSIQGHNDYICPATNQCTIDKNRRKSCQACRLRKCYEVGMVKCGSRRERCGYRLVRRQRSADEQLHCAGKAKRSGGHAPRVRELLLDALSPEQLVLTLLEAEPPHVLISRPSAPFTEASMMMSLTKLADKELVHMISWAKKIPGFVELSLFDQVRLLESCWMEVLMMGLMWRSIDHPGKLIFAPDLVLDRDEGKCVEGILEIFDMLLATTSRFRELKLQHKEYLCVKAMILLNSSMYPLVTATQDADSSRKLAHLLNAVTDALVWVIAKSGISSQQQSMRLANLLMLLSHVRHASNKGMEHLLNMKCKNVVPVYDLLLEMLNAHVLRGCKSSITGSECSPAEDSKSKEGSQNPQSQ

For `C[C@@H]1Cc2cc(O)ccc2C2CC[C@]3(C)/C(=C/COCCN4CCCC4)CCC3C21` (stereo partly drawn), the IC50 in assay [1] (Homo sapiens) is 6.9 µM.
On the same count and under the same terms, the figure for `C[C@@H]1Cc2cc(O)ccc2[C@H]2CC[C@]3(C)/C(=C/COCCN4CCCCC4)CC[C@H]3[C@H]12` is 15 µM.
Turning to `CN(C)CCOCC=C1CCC2C3CCc4cc(O)ccc4C3CCC12C.O=C(O)C=CC(=O)O` (stereo not drawn) [fumerate salt], the “Activity of salt (data not provided)” value in assay [2] is on record as “found to have activity”.
Turning to `CC/C(=C(\c1ccc(O)cc1)c1ccc(OCCN(C)C)cc1)c1ccccc1` [OH-Tamoxifen, reference compound], the IC50 in assay [1] was over 20 µM.
`CN(C)CCOCC=C1CCC2C3CCc4cc(O)ccc4C3CCC12C.Cl` (stereo not drawn) [chloride salt]: in assay [2], the “Activity of salt (data not provided)” value is listed as “found to have activity”.
As for `C[C@@H]1Cc2cc(O)ccc2[C@H]2CC[C@]3(C)/C(=C/COCCN(C)C)CC[C@H]3[C@H]12` [Compound (1)], the IC50 at ER-α turned out to be 0.00156 ± 0.00042 µM; on ER-β, 0.0867 ± 0.0133 µM; in assay [1] (Homo sapiens), 0.8 µM.
As to `C[C@@H]1Cc2cc(O)ccc2[C@H]2CC[C@]3(C)/C(=C/COC[C@@H](C)N(C)C)CC[C@H]3[C@H]12`, the IC50 in assay [1] (Homo sapiens) worked out at 9.2 µM.
The same measure, in the same setting: the figure for `C[C@]12CC[C@@H]3c4ccc(O)cc4C[C@@H](CCCCCCCCC[S+]([O-])CCCC(F)(F)C(F)(F)F)[C@H]3[C@@H]1CC[C@@H]2O` (stereo partly drawn) [ICI-182780, reference compound] is over 20 µM; for `O=C(c1ccc(OCCN2CCCCC2)cc1)c1c(-c2ccc(O)cc2)sc2cc(O)ccc12` [Raloxifene, reference compound] it is over 20 µM; for `C[C@@H]1Cc2cc(O)ccc2[C@H]2CC[C@]3(C)/C(=C/COCCNC4CC4)CC[C@H]3[C@H]12` it is 10.2 µM.
